Assay [1] has as its system β-catenin. In words: β-catenin Western blot in KTCTL60 cells treated with proteasome inhibitor. It counts as cell-based, human. The following applies: 10 and 20 μM, FIG. 17B. The procedure:
(§1) Cell Culture and Transfections: Canine kidney epithelial cells MDCK, human fibrosarcoma HT1080, 293-T human embryonic kidney cells, Balb/C mouse 3T3 and human colon carcinoma SW480 cell lines were cultured in Dulbecco's modified Eagle's medium supplemented with 10% calf serum (Gibco, Grand Island, N.Y.) at 37° C. in the presence of 7% CO2. The human renal carcinoma cell line KTCTL60 was grown in RPMI medium and 10% calf serum. Cells were transiently transfected with the cDNA constructs described below, using Ca^2+-phosphate or lipofectamine (Gibco) and the expression of the transgene was assessed between 24 and 48 hours after transfection. In some experiments, the expression of the stably transfected NH2 terminus-deleted β-catenin (Δ57) was enhanced in HT1080 cells by overnight treatment with 2 mM sodium butyrate.
(§2) Lactacystin A (dissolved in water at 0.4 mg/ml was used at a final concentration of 4 μg/ml) and MG-132 (used at 10 or 20 μM) were purchased from Calbiochem (La Jolla, Calif.).
(§3) Polyacrylamide Gel Electrophoresis and Immunoblotting: Equal amounts of total cell protein were separated by SDS PAGE, electro-transferred to nitrocellulose and incubated with monoclonal antibodies. […] Equal volumes of the two fractions were analyzed by SDS PAGE followed by immunoblotting with the various antibodies.
(In general: Immunoblotting shows a protein as a band on a membrane.)

A further assay relates to plakoglobin. Put plainly: Plakoglobin Western blot in KTCTL60-PG cells treated with proteasome inhibitor. It is filed as cell-based, human. The following applies: 10 and 20 μM, FIG. 17B. The procedure: as §1, §2, §3
For assay [2], the system named is β-catenin. In words: β-catenin Western blot in Balb/C 3T3 cells treated with ubiquitin-proteasome inhibitors. To be noted: treated 4 hours, FIG. 17A. It counts as cell-based, mouse. On the procedure:
as §2
Polyacrylamide Gel Electrophoresis and Immunoblotting: Equal amounts of total cell protein were separated by SDS PAGE, electro-transferred to nitrocellulose and incubated with monoclonal antibodies. The antigens were visualized by the enhanced chemiluminescence (Amersham, Buckinghampshire, U.K). In some experiments, cells were fractionated into Triton X-100-soluble and -insoluble fractions. Briefly, cells cultured on 35 mm dishes were incubated in 0.5 ml buffer containing 50 mM MES, pH 6.8, 2.5 mM EGTA, 5 mM MgCl2 and 0.5% Triton-X-100, at room temperature for 3 minutes. The Triton X-100-soluble fraction was removed, and the insoluble fraction was scraped into 0.5 ml of the same buffer. Equal volumes of the two fractions were analyzed by SDS PAGE followed by immunoblotting with the various antibodies.

Assay [3] has as its system β-catenin-mediated transactivation. Put plainly: TOPFLASH luciferase transactivation in SW480 cells (Example 1). It is filed as cell-based, human. To be noted: SW480 cells, GFP-fused cadherin tail constructs, FIG. 7C. The procedure:
(§4) Cell culture and transfections: CHO and SW480 human colon carcinoma cells were cultured in Dulbecco's modified Eagle's medium containing 10% fetal calf serum in an 8% CO2 incubator at 37° C. Transfections were performed using Lipofectamine (Gibco, BRL, USA) according to the manufacturer's instructions. Stably transfected CHO clones were generated by co-transfection with a plasmid encoding the puromycin resistance gene. Two days after transfection, cells were replated in the presence of 10 μg/ml puromycin (Sigma, Holon, Israel). Stable clones were isolated 2 weeks later and tested for the expression of the transgene by Western blot analysis.
Transactivation assays: CHO cells were transfected with TOPFLASH or FOPFLASH vectors (van de Wetering et al., 1997, ibid) and with pCDNA3 coding for β-galactosidase to normalize for transfection efficiency. The transfection mixture also contained either β-catenin, LEF-1 or cadherin derivatives in different combinations, as indicated. SW480 cells were transfected with TOPFLASH and cadherin derivatives. After 48 hours, cells were harvested and tested for luciferase and β-galactosidase activities as follows: Cells were washed 5 times with PBS, resuspended in PM-2 buffer (33 mM NaH2PO4, 66 mM Na2HPO4, 0.1 mM MnCl2, 2 mM MgSO4, 40 mM β-mercaptoethanol) and lysed by 5 cycles of freezing and thawing. Aliquots containing equal amounts of protein were incubated with O-Nitrophenyl-β-D-galactopyranoside (ONPG) at 37° C. until a yellow color appeared. The reactions were stopped with 1 M Na2CO3 and the absorbance at 420 nm was determined. Identical aliquots were tested for luciferase activity using luciferine buffer (100 mM Tris-O-Acetate pH 7.8, 10 mM Mg-O-Acetate, 1 mM EDTA, 74 μM luciferine (Boehringer Mannheim, Germany) and 2.22 mM ATP, pH 7.0). The luciferase reaction was monitored by a TD-20e luminometer (Turner, USA) and normalized for the β-galactosidase activity.
Distribution of N-cadherin derivatives and the effect on β-catenin transactivation in SW480 cells: SW480 colon carcinoma cells express mutant APC, low levels of E-cadherin and relatively high levels of free β-catenin. These cells also display very significant β-catenin-mediated transcription after transfection with TOPFLASH (FIG. 6A, lane 1). To determine the effect of cadherin on this β-catenin-driven transactivation, each of the three N-cadherin derivatives was transfected together with TOPFLASH into SW480 cells and luciferase activity determined. […] The most efficient inhibitor of this transactivation was the cadherin tail construct (FIG. 6A, lane 4), which inhibited the reporter gene by more than 85%. Full-length N-cadherin and the IL2R/N-cadherin chimera decreased the activity of the reporter by about 70% and 50%, respectively.

Assay [4] deals with T1, β-catenin (Cricetulus griseus, UniProt G3H996).
T1 construct: resulting from the stabilization of the endogenous β-catenin by the transfected cadherin derivatives; endogenous in cells; host or cells: CHO cells, stably or transiently transfected with cadherin derivatives only
T1 sequence (G3H996 1-781): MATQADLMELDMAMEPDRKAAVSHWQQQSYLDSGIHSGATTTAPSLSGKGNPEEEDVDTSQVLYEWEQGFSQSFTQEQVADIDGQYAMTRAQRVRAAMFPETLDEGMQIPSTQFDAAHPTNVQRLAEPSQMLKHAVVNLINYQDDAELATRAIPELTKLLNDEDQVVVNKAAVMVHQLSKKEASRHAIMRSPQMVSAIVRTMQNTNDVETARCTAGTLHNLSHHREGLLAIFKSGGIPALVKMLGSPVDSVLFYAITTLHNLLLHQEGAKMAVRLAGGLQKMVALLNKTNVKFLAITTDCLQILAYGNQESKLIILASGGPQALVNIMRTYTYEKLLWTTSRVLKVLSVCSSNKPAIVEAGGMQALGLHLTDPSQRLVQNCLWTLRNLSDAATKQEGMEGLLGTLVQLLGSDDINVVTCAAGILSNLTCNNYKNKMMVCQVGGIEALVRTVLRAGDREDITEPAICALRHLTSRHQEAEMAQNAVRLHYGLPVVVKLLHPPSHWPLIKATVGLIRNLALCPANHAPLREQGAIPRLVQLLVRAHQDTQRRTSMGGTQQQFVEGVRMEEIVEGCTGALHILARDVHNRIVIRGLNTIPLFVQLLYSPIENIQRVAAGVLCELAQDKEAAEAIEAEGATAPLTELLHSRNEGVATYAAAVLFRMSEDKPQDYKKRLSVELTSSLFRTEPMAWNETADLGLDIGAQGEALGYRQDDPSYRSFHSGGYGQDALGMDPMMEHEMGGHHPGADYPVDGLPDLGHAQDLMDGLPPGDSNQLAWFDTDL
Put plainly: β-catenin level in CHO cells by Western blot. It counts as cell-based. The following applies: CHO cells transiently transfected with GFP-cadherin constructs, FIG. 7B. On the procedure: as §4
Immunoblotting and immunoprecipitation: The following antibodies were used: polyclonal pan-cadherin or monoclonal anti cadherin (CH-19) and polyclonal anti β-catenin antibodies were from Sigma (Holon, Israel). Monoclonal anti β-catenin, 5H10 (from M. Wheelock), anti IL2Rα (from UBI), anti flag (M2, from IBI), anti HA (clone 12CA5, from Boehringer Mannheim, Germany), anti GFP (polyclonal, from Clontech, Palo Alto, Calif.), anti LEF-1 (polyclonal, kindly provided by Dr. R. Grosschedl). Secondary antibodies for Western blotting were goat anti rabbit or anti mouse conjugated to HRP (Amersham, Buckinghampshire, UK), and for immunofluorescence analysis the secondary antibodies were FITC-goat anti mouse (Cappel, USA) or rhodamine-anti rabbit antibodies (from Jackson Immuno-Research, West Grove, Pa.). Cells were harvested in Laemmli's sample buffer and equal amounts of total cell protein from the different clones, or from transient transfections, were separated by SDS-PAGE, electrotransferred to nitrocellulose and incubated with the different antibodies. For immunoprecipitation, cells were harvested in IP buffer (20 mM Tris pH 8.0, 1% Triton X-100, 140 mM NaCl, 10% glycerol, 1 mM EGTA, 1.5 mM MgCl2, 1 mM DTT, 1 mM sodium vanadate, and 50 μg/ml PMSF). Equal amounts (500-700 μg) of cell protein were incubated with 1 μl of the relevant antibody for 2 hours at 4° C., followed by incubation with 20 μl of protein A+G/agarose beads (Santa Cruz Biotechnologies, Santa Cruz, Calif.) for an additional 2 hours at 4° C. The agarose beads were washed with 20 mM Tris pH 8.0, 150 mM NaCl, and 0.5% NP-40, and the immune complexes recovered by boiling in Laemmli's sample buffer and resolved by SDS-PAGE.

The test system of a further assay is HT1080 cells. In words: Butyrate induction in HT1080 cells stably expressing ΔN57 β-catenin. It is filed as cell-based, human. The procedure: as §1, with “In some experiments, the expression of the stably transfected NH2 terminus-deleted β-catenin (Δ57) was enhanced in HT1080 cells by overnight treatment with 2 mM sodium butyrate.” left out
Immunofluorescence Microscopy: Cells cultured on glass coverslips were fixed with 3.7% paraformaldehyde in PBS and permeabilized with 0.5% Triton X-100. […] Images of the fluorescent cells were recorded with a cooled, scientific grade CCD camera (Photometrics, Tucson, Ariz.). Integrated fluorescent intensities in transfected and nontransfected cells were determined, after the background was subtracted.
as §3

The text below walks through data of patent US20020045591A1, “Methods and therapeutic compositions for treating cancer” (priority 1998, published 2002).

Non-standard residues stand in square brackets, D forms with d. Residues, ends and D or L forms follow the SMILES beside them. No end group written: not given here. *: point of attachment. Nle = CCCC[C@H](N)C(=O)O; Cbz = O=C(OCc1ccccc1)*

For `CC(C)C[C@@H](C=O)NC(=O)[C@H](CC(C)C)NC(=O)[C@H](CC(C)C)NC(=O)OCc1ccccc1` [MG-132] (Cbz-Leu-Leu-Leu-aldehyde), in the assay on β-catenin [1], the “effect on β-catenin content” value is recorded as “dramatic elevation in β-catenin content”. Further, the “effect on plakoglobin level” value in the assay on plakoglobin is “moderate increase in plakoglobin”. For the same compound, the “effect on β-catenin (Western blot)” value in the assay with β-catenin [2] is “appearance of higher molecular weight β-catenin forms”.
Regarding `CCCC[C@@H](C=O)NC(=O)[C@H](CC(C)C)NC(=O)[C@H](CC(C)C)NC(C)=O` [ALLN, N-Acetyl-Leu-Leu-Norleucinal] (Ac-Leu-Leu-[Nle]-aldehyde), the “effect on β-catenin (Western blot)” value with β-catenin [2] is listed as “appearance of higher molecular weight β-catenin forms”.
Take “E72: C-terminal 72 amino acids of E-cadherin (813-884) fused to GFP”: in assay [3], the “inhibition of luciferase activity (LEF-1-driven transactivation)” value (“inhibition of luciferase activity” below) was determined as 60%. In the assay with β-catenin [4], the “stabilization of β-catenin against degradation” value (shortened to “stabilization of β-catenin”) is reported as “could also stabilize β-catenin”.
In the same order, the values of “N71: C-terminal 71 amino acids of N-cadherin (842-912) fused to GFP” are 70% and “could also stabilize β-catenin”.
For the compound `CC(=O)N[C@@H](CSC(=O)[C@]1([C@@H](O)C(C)C)NC(=O)[C@H](C)[C@@H]1O)C(=O)O` [Lactacystin], the “effect on β-catenin (Western blot)” value with β-catenin [2] is “appearance of higher molecular weight β-catenin forms”.
Regarding “N30: N-cadherin tail fragment, amino acids 862-891, fused to GFP (LVFDYEGSGSTAGSLSSLNSSSSGGEQDYD; also: fused to GFP)”, in assay [3], the “inhibition of luciferase activity” value was “did not affect β-catenin-mediated transactivation”. For the same compound, the “stabilization of β-catenin” value in the assay with β-catenin [4] is “ineffective in stabilizing β-catenin against degradation”.
As to “E30: E-cadherin tail fragment, amino acids 833-862, fused to GFP”, the “inhibition of luciferase activity” value in assay [3] is given as “did not affect β-catenin-mediated transactivation”. The “stabilization of β-catenin” value in the assay with β-catenin [4] is recorded as “ineffective in stabilizing β-catenin against degradation”.
Regarding `CCCC(=O)[O-].[Na+]` [butyrate, sodium butyrate], in the assay with HT1080 cells (butyrate-treated, FIG. 14D), the β-catenin localization result is on record as “dramatic translocation of β-catenin into the nucleus”. For the same compound, the “increase in expression of the transgene (western blot)” value in the assay with HT1080 cells (overnight 2 mM sodium butyrate, data not shown) is “about 2 fold”.
